Measurements: ChEMBL document CHEMBL5143587, “Antitumor Effect of Manool in a Murine Melanoma Model” (J Nat Prod, 2022)
Active and inactive are the calls of the source. The calls are words filed in the database; no cut-off is given here.

How the values were obtained:
[1] = Toxicity in C57BL/6 mouse xenografted with mouse B16-F10 cells assessed as splenomegaly at 40 mg/kg, sc administered once daily for consecutive 5 days; type: organism-based; conditions: in vivo, 120 h, time 5 day
B16-F10 [2] = test: Antitumor activity against mouse B16-F10 cells bearing C57BL/6 mouse assessed as reduction in mitotic figures at 40 mg/kg, ip administered once daily for consecutive 5 days by H and E staining microscopic analysis; type: functional, organism-based; conditions: time 5.0 day
[3] = Toxicity in C57BL/6 mouse xenografted with mouse B16-F10 cells assessed as change in lung weight at 20 to 40 mg/kg, ip administered once daily for consecutive 5 days relative to control; type: organism-based; conditions: in vivo, 120 h, dose 20-40 mg/kg, time 5 day
[4] = Toxicity in C57BL/6 mouse xenografted with mouse B16-F10 cells assessed as change in body weight at 20 to 40 mg/kg, ip administered once daily for consecutive 5 days; type: organism-based; conditions: in vivo, 120 h, dose 20-40 mg/kg, time 5 day
[5] = Genotoxicity in C57BL/6 mouse xenografted with mouse B16-F10 cells assessed as ratio of polychromatic erythrocytes to total erythrocytes in bone marrow cells at 40 mg/kg, sc for consecutive 5 days (reference value: 0.60 +/-0.01); type: toxicity, organism-based; conditions: in vivo, 120 h, time 5 day
[6] = Toxicity in C57BL/6 mouse xenografted with mouse B16-F10 cells assessed as body weight loss at 20 mg/kg, po administered once daily for consecutive 5 days in presence of cisplatin relative to control; type: organism-based; conditions: in vivo, 120 h, time 5 day
[7] = Toxicity in C57BL/6 mouse xenografted with mouse B16-F10 cells assessed as change in heart weight at 20 to 40 mg/kg, po administered once daily for consecutive 5 days relative to control; type: organism-based; conditions: in vivo, 120 h, dose 20-40 mg/kg, time 5 day
[8] = Genotoxicity in C57BL/6 mouse xenografted with mouse B16-F10 cells assessed as micronucleated polychromatic erythrocytes frequency in bone marrow cells at 40 mg/kg, po for consecutive 5 days (reference value: 6.00 +/-1.00); type: toxicity, organism-based; conditions: in vivo, 120 h, time 5 day
[9] = Toxicity in C57BL/6 mouse xenografted with mouse B16-F10 cells assessed as splenomegaly at 40 mg/kg, ip administered once daily for consecutive 5 days; type: organism-based; conditions: in vivo, 120 h, time 5 day
[10] = Toxicity in C57BL/6 mouse xenografted with mouse B16-F10 cells assessed as splenomegaly at 40 mg/kg, po administered once daily for consecutive 5 days; type: organism-based; conditions: in vivo, 120 h, time 5 day
[11] = Genotoxicity in C57BL/6 mouse xenografted with mouse B16-F10 cells assessed as micronucleated polychromatic erythrocytes frequency in bone marrow cells at 20 mg/kg, po for consecutive 5 days (reference value: 6.00 +/-1.00); type: toxicity, organism-based; conditions: in vivo, 120 h, time 5 day
B16-F10 [12] = test: Antitumor activity against mouse B16-F10 cells bearing C57BL/6 mouse assessed as reduction in tumor weight at 20 mg/kg, po administered once daily for consecutive 5 days relative to control; type: functional; design: scale not given: the % may be the effect or the level left; conditions: time 5 day
[13] = Genotoxicity in C57BL/6 mouse xenografted with mouse B16-F10 cells assessed as ratio of polychromatic erythrocytes to total erythrocytes in bone marrow cells at 40 mg/kg, po for consecutive 5 days (reference value: 0.90 +/-0.04); type: toxicity, organism-based; conditions: in vivo, 120 h, time 5 day
[14] = Toxicity in C57BL/6 mouse xenografted with mouse B16-F10 cells assessed as change in body weight at 20 to 40 mg/kg, po administered once daily for consecutive 5 days; type: organism-based; conditions: in vivo, 120 h, dose 20-40 mg/kg, time 5 day
[15] = Genotoxicity in C57BL/6 mouse xenografted with mouse B16-F10 cells assessed as ratio of polychromatic erythrocytes to total erythrocytes in bone marrow cells at 20 mg/kg, sc for consecutive 5 days (reference value: 0.60 +/-0.01); type: toxicity, organism-based; conditions: in vivo, 120 h, time 5 day
B16-F10 [16] = test: Antitumor activity against mouse B16-F10 cells bearing C57BL/6 mouse assessed as reduction in tumor weight at 40 mg/kg, po administered once daily for consecutive 5 days relative to control; type: functional; design: scale not given: the % may be the effect or the level left; conditions: time 5 day
[17] = Toxicity in C57BL/6 mouse xenografted with mouse B16-F10 cells assessed as reduction in spleen weight at 20 mg/kg, ip administered once daily for consecutive 5 days; type: organism-based; conditions: in vivo, 120 h, time 5 day
[18] = Toxicity in C57BL/6 mouse xenografted with mouse B16-F10 cells assessed as change in kidney weight at 20 to 40 mg/kg, po administered once daily for consecutive 5 days relative to control; type: organism-based; conditions: in vivo, 120 h, dose 20-40 mg/kg, time 5 day
[19] = Toxicity in C57BL/6 mouse xenografted with mouse B16-F10 cells assessed as change in heart weight at 20 to 40 mg/kg, ip administered once daily for consecutive 5 days relative to control; type: organism-based; conditions: in vivo, 120 h, dose 20-40 mg/kg, time 5 day
[20] = Toxicity in C57BL/6 mouse xenografted with mouse B16-F10 cells assessed as reduction in spleen weight at 20 mg/kg, po administered once daily for consecutive 5 days; type: organism-based; conditions: in vivo, 120 h, time 5 day
[21] = Toxicity in C57BL/6 mouse xenografted with mouse B16-F10 cells assessed as change in body weight at 20 to 40 mg/kg, sc administered once daily for consecutive 5 days; type: organism-based; conditions: in vivo, 120 h, dose 20-40 mg/kg, time 5 day
[22] = Genotoxicity in C57BL/6 mouse xenografted with mouse B16-F10 cells assessed as ratio of polychromatic erythrocytes to total erythrocytes in bone marrow cells at 20 mg/kg, ip for consecutive 5 days (reference value: 0.91+/-0.01); type: toxicity, organism-based; conditions: in vivo, 120 h, time 5 day
B16-F10 [23] = test: Antitumor activity against mouse B16-F10 cells bearing C57BL/6 mouse assessed as reduction in tumor weight at 20 mg/kg, sc administered once daily for consecutive 5 days relative to control (reference value: 50.7%); type: functional; design: scale not given: the % may be the effect or the level left; conditions: time 5 day
B16-F10 [24] = test: Antitumor activity against mouse B16-F10 cells bearing C57BL/6 mouse assessed as reduction in tumor weight at 20 mg/kg, po administered once daily for consecutive 5 days in presence of cisplatin relative to control; type: functional; design: scale not given: the % may be the effect or the level left; conditions: time 5 day
B16-F10 [25] = test: Antitumor activity against mouse B16-F10 cells bearing C57BL/6 mouse assessed as reduction in number of mitotic figures at 20 mg/kg, po administered once daily for consecutive 5 days in presence of cisplatin by H and E staining microscopic analysis; type: functional, organism-based; conditions: time 5.0 day
[26] = Genotoxicity in C57BL/6 mouse xenografted with mouse B16-F10 cells assessed as micronucleated polychromatic erythrocytes frequency in bone marrow cells at 20 mg/kg, ip for consecutive 5 days (reference value: 8.00); type: toxicity, organism-based; conditions: in vivo, 120 h, time 5 day
[27] = Toxicity in C57BL/6 mouse xenografted with mouse B16-F10 cells assessed as change in kidney weight at 20 to 40 mg/kg, ip administered once daily for consecutive 5 days relative to control; type: organism-based; conditions: in vivo, 120 h, dose 20-40 mg/kg, time 5 day
[28] = Genotoxicity in C57BL/6 mouse xenografted with mouse B16-F10 cells assessed as micronucleated polychromatic erythrocytes frequency in bone marrow cells at 40 mg/kg, sc for consecutive 5 days (reference value: 10.00 +/-2.00); type: toxicity, organism-based; conditions: in vivo, 120 h, time 5 day
[29] = Toxicity in C57BL/6 mouse xenografted with mouse B16-F10 cells assessed as reduction in spleen weight at 20 mg/kg, sc administered once daily for consecutive 5 days; type: organism-based; conditions: in vivo, 120 h, time 5 day
[30] = Toxicity in C57BL/6 mouse xenografted with mouse B16-F10 cells assessed as change in heart weight at 20 to 40 mg/kg, sc administered once daily for consecutive 5 days relative to control; type: organism-based; conditions: in vivo, 120 h, dose 20-40 mg/kg, time 5 day
[31] = Genotoxicity in C57BL/6 mouse xenografted with mouse B16-F10 cells assessed as ratio of polychromatic erythrocytes to total erythrocytes in bone marrow cells at 20 mg/kg, po for consecutive 5 days (reference value: 0.90 +/-0.04); type: toxicity, organism-based; conditions: in vivo, 120 h, time 5 day
[32] = Toxicity in C57BL/6 mouse xenografted with mouse B16-F10 cells assessed as change in kidney weight at 20 to 40 mg/kg, sc administered once daily for consecutive 5 days relative to control; type: organism-based; conditions: in vivo, 120 h, dose 20-40 mg/kg, time 5 day
B16-F10 [33] = test: Antitumor activity against mouse B16-F10 cells bearing C57BL/6 mouse assessed as reduction in tumor weight at 40 mg/kg, ip administered once daily for consecutive 5 days relative to control (reference value: 71.1%); type: functional; design: scale not given: the % may be the effect or the level left; conditions: time 5 day
[34] = Toxicity in C57BL/6 mouse xenografted with mouse B16-F10 cells assessed as splenomegaly at 20 mg/kg, ip administered once daily for consecutive 5 days; type: organism-based; conditions: in vivo, 120 h, time 5 day
[35] = Genotoxicity in C57BL/6 mouse xenografted with mouse B16-F10 cells assessed as micronucleated polychromatic erythrocytes frequency in bone marrow cells at 20 mg/kg, sc for consecutive 5 days (reference value: 10.00 +/-2.00); type: toxicity, organism-based; conditions: in vivo, 120 h, time 5 day
[36] = Genotoxicity in C57BL/6 mouse xenografted with mouse B16-F10 cells assessed as ratio of polychromatic erythrocytes to total erythrocytes in bone marrow cells at 40 mg/kg, ip for consecutive 5 days (reference value: 0.91+/-0.01); type: toxicity, organism-based; conditions: in vivo, 120 h, time 5 day
[37] = Toxicity in C57BL/6 mouse xenografted with mouse B16-F10 cells assessed as change in lung weight at 20 to 40 mg/kg, po administered once daily for consecutive 5 days relative to control; type: organism-based; conditions: in vivo, 120 h, dose 20-40 mg/kg, time 5 day
[38] = Toxicity in C57BL/6 mouse xenografted with mouse B16-F10 cells assessed as change in lung weight at 20 to 40 mg/kg, sc administered once daily for consecutive 5 days relative to control; type: organism-based; conditions: in vivo, 120 h, dose 20-40 mg/kg, time 5 day
B16-F10 [39] = test: Antitumor activity against mouse B16-F10 cells bearing C57BL/6 mouse assessed as reduction in tumor weight at 20 mg/kg, ip administered once daily for consecutive 5 days relative to control (reference value: 71.1%); type: functional; design: scale not given: the % may be the effect or the level left; conditions: time 5 day
[40] = Genotoxicity in C57BL/6 mouse xenografted with mouse B16-F10 cells assessed as micronucleated polychromatic erythrocytes frequency in bone marrow cells at 40 mg/kg, ip for consecutive 5 days (reference value: 8.00); type: toxicity, organism-based; conditions: in vivo, 120 h, time 5 day

C=C[C@](C)(O)CC[C@H]1C(=C)CC[C@H]2C(C)(C)CCC[C@]12C
Activity [1]: Toxic
Activity (B16-F10 [2]): Active
Activity [3]: Non-Toxic
Activity [4]: Non-Toxic
Ratio [5]: 0.85
Activity [6]: Toxic
Activity [7]: Non-Toxic
Activity [8]: 6
Activity [9]: Toxic
Activity [10]: Toxic
Activity [11]: 8
Activity (B16-F10 [12]): 62.4%
Ratio [13]: 0.9
Activity [14]: Non-Toxic
Ratio [15]: 0.85
Activity (B16-F10 [16]): 9.3%
Activity [17]: Toxic
Activity [18]: Non-Toxic
Activity [19]: Non-Toxic
Activity [20]: Non-Toxic
Activity [21]: Non-Toxic
Ratio [22]: 0.82
Activity (B16-F10 [23]): 38.8%
Activity (B16-F10 [24]): 86.7%
Activity (B16-F10 [25]): Active
Activity [26]: 5.67
Activity [27]: Non-Toxic
Activity [28]: 7.33
Activity [29]: Non-Toxic
Activity [30]: Non-Toxic
Ratio [31]: 0.92
Activity [32]: Non-Toxic
Activity (B16-F10 [33]): 64.9%
Activity [34]: Toxic
Activity [35]: 6
Ratio [36]: 0.83
Activity [37]: Non-Toxic
Activity [38]: Non-Toxic
Activity (B16-F10 [39]): 48.5%
Activity [40]: 4.33
